Source: the supplement of paper PMC10307832

Legend:
Assay in all cases: relative viability (nuclei count vs DMSO), 5 days (fraction); higher = more cells survive
[1] = compound: C1=CC2=C(C=C(C(=C2N=C1)O)N=NC3=CC4=C(C=C3)C=C(C=C4)S(=O)(=O)O)S(=O)(=O)O + CC(=O)Nc1cccc(-n2c(=O)n(C3CC3)c(=O)c3c(Nc4ccc(I)cc4F)n(C)c(=O)c(C)c32)c1 [Trametinib] (partner 0.02 µM)
Procedure, shortened: (§1)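 Cells from lung cancer lines were seeded into 1536-well plates and, one day later, dosed by pin tool. Treatments were either a single drug or a fixed dose of an anchor drug with five library-drug doses (not always all listed) in √10 steps. After 5 days, nuclei were stained in a one-step fixation (final 0.05% Triton X-100, 1% formaldehyde, 1 ug/ml Hoechst) and counted on 4× images, and relative viability is the treated-to-vehicle nuclei ratio, as the median of duplicate plates.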

[2] = compound: C1=CC2=C(C=C(C(=C2N=C1)O)N=NC3=CC4=C(C=C3)C=C(C=C4)S(=O)(=O)O)S(=O)(=O)O + CS(=O)(=O)N1CCN(Cc2cc3nc(-c4cccc5[nH]ncc45)nc(N4CCOCC4)c3s2)CC1 [Pictilisib] (partner 1 µM)
Procedure, shortened: as §1

[3] = compound: C1=CC2=C(C=C(C(=C2N=C1)O)N=NC3=CC4=C(C=C3)C=C(C=C4)S(=O)(=O)O)S(=O)(=O)O + NC(=O)Nc1cc(-c2cccc(F)c2)sc1C(=O)N[C@H]1CCCNC1 [AZD7762] (partner 0.2 µM)
Procedure, shortened: as §1

AT-7519 + Phenformin = compound: O=C(NC1CCNCC1)c1n[nH]cc1NC(=O)c1c(Cl)cccc1Cl [AT-7519] + N=C(N)NC(=N)NCCc1ccccc1 [Phenformin] (partner 250 µM)
Procedure, shortened: as §1

| Cell Line | relative viability ([1]; first compound 0.08 µM) | relative viability ([1]; first compound 0.253 µM) | relative viability ([1]; first compound 0.8 µM) | relative viability ([1]; first compound 2.53 µM) | relative viability ([1]; first compound 8 µM) | relative viability ([2]; first compound 0.08 µM) | relative viability ([2]; first compound 0.253 µM) | relative viability ([2]; first compound 0.8 µM) | relative viability ([2]; first compound 2.53 µM) | relative viability ([2]; first compound 8 µM) | relative viability ([3]; first compound 0.08 µM) | relative viability ([3]; first compound 0.253 µM) | relative viability ([3]; first compound 0.8 µM) | relative viability ([3]; first compound 2.53 µM) | relative viability ([3]; first compound 8 µM) | relative viability (AT-7519 + Phenformin; first compound 0.01 µM) | relative viability (AT-7519 + Phenformin; first compound 0.03162 µM) | relative viability (AT-7519 + Phenformin; first compound 0.3162 µM) | relative viability (AT-7519 + Phenformin; first compound 1 µM) |
| --- | --- | --- | --- | --- | --- | --- | --- | --- | --- | --- | --- | --- | --- | --- | --- | --- | --- | --- | --- |
| NCI-H1395 | 1.07 | 1.02 | 1.02 | 0.911 | 1.02 | 0.667 | 0.607 | 0.578 | 0.575 | 0.602 | 0.383 | 0.404 | 0.395 | 0.411 | 0.358 | 0.463 | 0.518 | 0.443 | 0.407 |
| 201T | 0.721 | 0.731 | 0.713 | 0.709 | 0.693 | 0.625 | 0.696 | 0.649 | 0.695 | 0.72 | 0.691 | 0.652 | 0.56 | 0.632 | 0.634 | 0.461 | 0.441 | 0.486 | 0.473 |
| NCI-H2170 | 1.06 | 0.856 | 0.83 | 0.984 | 0.927 | 0.315 | 0.4 | 0.312 | 0.306 | 0.308 | 1.02 | 1.04 | 0.89 | 1.01 | 0.914 | 0.412 | 0.414 | 0.423 | 0.418 |
| NCI-H460 | 0.187 | 0.0935 | 0.138 | 0.141 | 0.169 | 0.356 | 0.366 | 0.336 | 0.344 | 0.104 | 0.612 | 0.629 | 0.605 | 0.637 | 0.53 | 0.636 | 0.31 | 0.0379 | 0.0177 |
| HCC-15 | 0.427 | 0.387 | 0.428 | 0.377 | 0.365 | 0.839 | 0.766 | 0.635 | 0.804 | 0.636 | 1.32 | 1.25 | 1.23 | 1.18 | 1.15 | 0.468 | 0.422 | 0.401 | 0.241 |
| LCLC-103H | 0.661 | 0.706 | 0.658 | 0.667 | 0.675 | 0.662 | 0.625 | 0.489 | 0.615 | 0.705 | 0.85 | 0.801 | 0.758 | 0.774 | 0.891 | 0.32 | 0.296 | 0.313 | 0.33 |
| NCI-H441 | 0.558 | 0.464 | 0.435 | 0.341 | 0.476 | 0.475 | 0.49 | 0.37 | 0.528 | 0.498 | 1.18 | 1.08 | 0.946 | 1.13 | 1.13 | 0.847 | 0.955 | 0.775 | 0.515 |
| EPLC-272H | 0.358 | 0.276 | 0.277 | 0.287 | 0.282 | 0.354 | 0.321 | 0.291 | 0.312 | 0.104 | 0.204 | 0.212 | 0.177 | 0.311 | 0.177 | 0.272 | 0.295 | 0.307 | 0.198 |
